From patent US9169254B2, “Spiroimidazolone derivative” (Chugai Seiyaku Kabushiki Kaisha, priority 2009, dated 2015)

These compounds were tested against T1, human PTH1 receptor (Homo sapiens, UniProt Q03431) (assay: In vitro cAMP signal activity in HKRK-B7 cells (LLC-PK1 cells overexpressing the human PTH1 receptor)). Settings: HKRK-B7 cells; compound at 1×10^−3 M; cAMP produced as percentage of that produced by hPTH(1-34) at 100 nM.
T1 sequence (Q03431 27-593): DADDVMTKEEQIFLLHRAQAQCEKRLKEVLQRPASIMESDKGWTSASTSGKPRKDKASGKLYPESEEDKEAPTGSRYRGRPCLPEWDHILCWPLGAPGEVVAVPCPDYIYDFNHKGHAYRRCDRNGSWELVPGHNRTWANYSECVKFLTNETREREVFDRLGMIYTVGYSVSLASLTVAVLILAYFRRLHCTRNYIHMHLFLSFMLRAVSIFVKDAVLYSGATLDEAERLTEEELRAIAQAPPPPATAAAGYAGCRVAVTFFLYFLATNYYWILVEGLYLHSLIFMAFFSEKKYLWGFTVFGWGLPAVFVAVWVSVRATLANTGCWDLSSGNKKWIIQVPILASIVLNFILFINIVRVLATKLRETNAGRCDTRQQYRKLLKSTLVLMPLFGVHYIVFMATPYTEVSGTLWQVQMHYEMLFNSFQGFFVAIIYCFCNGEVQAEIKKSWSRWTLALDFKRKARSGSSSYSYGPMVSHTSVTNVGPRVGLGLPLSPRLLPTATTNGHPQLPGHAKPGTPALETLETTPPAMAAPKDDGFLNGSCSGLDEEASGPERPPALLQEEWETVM
Assay type: cell-based

| Compound | cAMP production activity (%) |
| --- | --- |
| CC(=O)N(C[C@H](O)CO)c1cc(C)c(CCS(=O)(=O)N2CCC3(CC2)N=C(CCCCCCCCC(F)(F)F)NC3=O)c(C)c1 [Compound 824, N—((S)-2,3-dihydroxy-propyl)-N-(3,5-dimethyl-4-{2-[4-oxo-2-(9,9,9-trifluoro-nonyl)-1,3,8-triaza-spiro[4.5]dec-1-ene-8-sulfonyl]-ethyl}-phenyl)-acetamide] | 140% |
| CC(=O)N(CCO)c1cc(C)c(CCS(=O)(=O)N2CCC3(CC2)N=C(c2ccc(F)c(C(F)(F)F)c2)NC3=O)c(C)c1 [Compound 794, N-(4-{2-[2-(4-fluoro-3-trifluoromethyl-phenyl)-4-oxo-1,3,8-triaza-spiro[4.5]dec-1-ene-8-sulfonyl]-ethyl}-3,5-dimethyl-phenyl)-N-(2-hydroxy-ethyl)-acetamide] | 76% |
| COc1c(N(C)C(=O)OC(C)(C)C)cc(C)c(CCS(=O)(=O)N2CCC3(CC2)N=C([C@H]2CC[C@H](C)CC2)NC3=O)c1C [Compound 669, (2-methoxy-3,5-dimethyl-4-{2-[2-(4-methyl-cyclohexyl)-4-oxo-1,3,8-triaza-spiro[4.5]dec-1-ene-8-sulfonyl]-ethyl}-phenyl)-methyl-carbamic acid tert-butyl ester] | 58% |
| Cc1cc(N(C)C(N)=O)cc(C)c1/C=C/S(=O)(=O)N1CCC2(CC1)N=C(CCCCCCCCCCCC(N)=O)NC2=O [Compound 1173, 12-(8-{(E)-2-[2,6-dimethyl-4-(1-methyl-ureido)-phenyl]-ethenesulfonyl}-4-oxo-1,3,8-triaza-spiro[4.5]dec-1-en-2-yl)-dodecanoic acid amide] | 85% |
| Cc1cc(C(=O)N2CCC(OC[C@H](O)CO)CC2)cc(C)c1/C=C/S(=O)(=O)N1CCC2(CC1)N=C(CCCCCCCCC(F)(F)F)NC2=O [Compound 1010, 8-((E)-2-{4-[4-((R)-2,3-Dihydroxy-propoxy)-piperidine-1-carbonyl]-2,6-dimethyl-phenyl}-ethenesulfonyl)-2-(9,9,9-trifluoro-nonyl)-1,3,8-triaza-spiro[4.5]dec-1-en-4-one] | 96% |
| Cc1cc(NCC(N)=O)ccc1/C=C/S(=O)(=O)N1CCC2(CC1)N=C(c1cccc(OC(F)(F)F)c1)NC2=O [Compound 529, 2-(3-methyl-4-{(E)-2-[4-oxo-2-(3-trifluoromethoxy-phenyl)-1,3,8-triaza-spiro[4.5]dec-1-ene-8-sulfonyl]-vinyl}-phenylamino)-acetamide] | 68% |
| Cc1cc(N(C)C(N)=O)cc(C)c1CC[S@TB4](=O)(=O)N1CCC2(CC1)N=C(CCCCCCCCCCCF)NC2=O [Compound 1153, 1-(4-{2-[2-(11-fluoro-undecyl)-4-oxo-1,3,8-triaza-spiro[4.5]dec-1-ene-8-sulfonyl]-ethyl}-3,5-dimethyl-phenyl)-1-methyl-urea] | 106% |
| Cc1cc(C(=O)N2CCN(C(=O)CO)CC2)cc(C)c1/C=C/S(=O)(=O)N1CCC2(CC1)N=C(c1cccc(OC(F)(F)F)c1)NC2=O [Compound 447, 8-((E)-2-{4-[4-(2-Hydroxy-acetyl)-piperazine-1-carbonyl]-2,6-dimethyl-phenyl}-ethenesulfonyl)-2-(3-trifluoromethoxy-phenyl)-1,3,8-triaza-spiro[4.5]dec-1-en-4-one] | 89% |
| Cc1cc2ccc1CCS(=O)(=O)N1CCC3(CC1)N=C(NC3=O)c1cc(cc(C(F)(F)F)c1)OCCCCCCCCCN(C)C2=O [Compound 1415] | 49% |
| Cc1cc(C(=O)N(C)C)ccc1CCS(=O)(=O)N1CCC2(CC1)N=C(Cc1ccc(Cl)cc1Cl)NC2=O [Compound 134, 4-{2-[2-(2,4-dichloro-benzyl)-4-oxo-1,3,8-triaza-spiro[4.5]dec-1-ene-8-sulfonyl]-ethyl}-3,N,N-trimethyl-benzamide] | 77% |
| CC(=O)N(CCOCCF)c1ccc(/C=C/S(=O)(=O)N2CCC3(CC2)N=C(C2CCC(CCC(F)(F)F)CC2)NC3=O)c(C)c1 (stereo not shown) [Compound 545, N-[2-(2-fluoro-ethoxy)-ethyl]-N-[3-methyl-4-((E)-2-{4-oxo-2-[4-(3,3,3-trifluoro-propyl)-cyclohexyl]-1,3,8-triaza-spiro[4.5]dec-1-ene-8-sulfonyl}-vinyl)-phenyl]-acetamide] | 86% |
| Cc1cc(N2C(=O)NC(C)(C)C2=O)cc(C)c1/C=C/S(=O)(=O)N1CCC2(CC1)N=C(c1cccc(OC(F)(F)F)c1)NC2=O [Compound 615, 3-(3,5-dimethyl-4-{(E)-2-[4-oxo-2-(3-trifluoromethoxy-phenyl)-1,3,8-triaza-spiro[4.5]dec-1-ene-8-sulfonyl]-vinyl}-phenyl)-5,5-dimethyl-imidazolidine-2,4-dione] | 46% |
| Cc1cc(CNC(=O)OC(C)(C)C)ccc1CCS(=O)(=O)N1CCC2(CC1)N=C(C(C)(C)C)NC2=O [Compound 162, {4-[2-(2-tert-Butyl-4-oxo-1,3,8-triaza-spiro[4.5]dec-1-ene-8-sulfonyl)-ethyl]-3-methyl-benzyl}-carbamic acid tert-butyl ester] | 43% |

Second part, the compound after the results:

| cAMP production activity (%) | Compound |
| --- | --- |
| 29% | O=C1NC(C2CCCCC2)=NC12CCN(S(=O)(=O)/C=C/c1ccc3[nH]ccc3c1)CC2 [Compound 178, 2-Cyclohexyl-8-[(E)-2-(1H-indol-5-yl)-ethenesulfonyl]-1,3,8-triaza-spiro[4.5]dec-1-en-4-one] |
| 68% | Cc1cc(N2C(=O)CNC2=O)cc(C)c1/C=C/S(=O)(=O)N1CCC2(CC1)N=C(C1CCC(C(C)C)CC1)NC2=O (stereo not shown) [Compound 564, 3-(4-{(E)-2-[2-(4-isopropyl-cyclohexyl)-4-oxo-1,3,8-triaza-spiro[4.5]dec-1-ene-8-sulfonyl]-vinyl}-3,5-dimethyl-phenyl)-imidazolidine-2,4-dione] |
| 65% | Cc1cc(C(=O)N2CCOC2=O)cc(C)c1CCS(=O)(=O)N1CCC2(CC1)N=C(C1CCCCC1)NC2=O [Compound 1179, 2-Cyclohexyl-8-{2-[2,6-dimethyl-4-(2-oxo-oxazolidine-3-carbonyl)-phenyl]-ethanesulfonyl}-1,3,8-triaza-spiro[4.5]dec-1-en-4-one] |
| 36% | Cc1cc(NCC2CNC(=O)O2)ccc1/C=C/S(=O)(=O)N1CCC2(CC1)N=C(C1CCCCC1)NC2=O (stereo not shown) [Compound 207, 2-cyclohexyl-8-((E)-2-{2-methyl-4-[(2-oxo-oxazolidin-5-ylmethyl)-amino]-phenyl}-ethenesulfonyl)-1,3,8-triaza-spiro[4.5]dec-1-en-4-one] |
| 84% | O=C1NC(C2CCCCC2)=NC12CCN(S(=O)(=O)/C=C/c1ccc3c(ccn3C[C@H](O)CO)c1)CC2 [Compound 702, 2-Cyclohexyl-8-{(E)-2-[1-((S)-2,3-dihydroxy-propyl)-1H-indol-5-yl]-ethenesulfonyl}-1,3,8-triaza-spiro[4.5]dec-1-en-4-one] |
| 66% | O=C(CNc1ccc(/C=C/S(=O)(=O)N2CCC3(CC2)N=C(C2CCCCC2)NC3=O)c(C(F)(F)F)c1)NCCO [Compound 494, 2-{4-[(E)-2-(2-cyclohexyl-4-oxo-1,3,8-triaza-spiro[4.5]dec-1-ene-8-sulfonyl)-vinyl]-3-trifluoromethyl-phenylamino}-N-(2-hydroxy-ethyl)-acetamide] |
| 29% | O=C1Cc2c(/C=C/S(=O)(=O)N3CCC4(CC3)N=C(C3CCCCC3)NC4=O)cccc2N1 [Compound 634, 2-cyclohexyl-8-[(E)-2-(2-oxo-2,3-dihydro-1H-indol-4-yl)-ethenesulfonyl]-1,3,8-triaza-spiro[4.5]dec-1-en-4-one] |
| 74% | COC(=O)Nc1ccc(C)c(CCS(=O)(=O)N2CCC3(CC2)N=C(C2CCCCC2)NC3=O)c1 [Compound 274, {3-[2-(2-cyclohexyl-4-oxo-1,3,8-triaza-spiro[4.5]dec-1-ene-8-sulfonyl)-ethyl]-4-methyl-phenyl}-carbamic acid methyl ester] |
| 46% | CN1CCCc2c(/C=C/S(=O)(=O)N3CCC4(CC3)N=C(C3CCCCC3)NC4=O)cccc21 [Compound 638, 2-cyclohexyl-8-[(E)-2-(1-methyl-1,2,3,4-tetrahydro-quinolin-5-yl)-ethenesulfonyl]-1,3,8-triaza-spiro[4.5]dec-1-en-4-one] |
| 61% | O=C1NC(C2CCCCC2)=NC12CCN(S(=O)(=O)CCc1cccc3ncccc13)CC2 [Compound 648, 2-cyclohexyl-8-(2-quinolin-5-yl-ethanesulfonyl)-1,3,8-triaza-spiro[4.5]dec-1-en-4-one] |
| 68% | O=C1NC(C2CCC(CCC(F)(F)F)CC2)=NC12CCN(S(=O)(=O)/C=C/c1cccc3c1ccn3CCOC[C@@H](O)CO)CC2 (stereo partly drawn) [Compound 704, 8-((E)-2-{1-[2-((S)-2,3-Dihydroxy-propoxy)-ethyl]-1H-indol-4-yl}-ethenesulfonyl)-2-[4-(3,3,3-trifluoro-propyl)-cyclohexyl]-1,3,8-triaza-spiro[4.5]dec-1-en-4-one] |
| 2.5% | O=C(CO)N1CCCC(C2=NC3(CCN(S(=O)(=O)c4cccc(Cl)c4)CC3)C(=O)N2)C1 (stereo not shown) [Compound 424, 8-(3-chloro-benzenesulfonyl)-2-[1-(2-hydroxy-acetyl)-piperidin-3-yl]-1,3,8-triaza-spiro[4.5]dec-1-en-4-one] |
